Data from patent US8592448B2 (OSI Pharmaceuticals, LLC, priority 2008, dated 2013).
Read-outs that look alike come from different tables or passages of the source.

Legend:
MKN45 cells = assay: MKN45 cell proliferation assay (CellTiter-Glo); assay type: cell-based; conditions: MKN45 cell line, 3 days incubation, at least duplicate experiments, read-out: Prolif. IC50
How it was run: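 MKN45 cells (5000/well, RPMI + 10% FCS) plated overnight, then exposed to 8-point dilution series, typically 10 μM to 0.6 nM, in 0.1% DMSO for 3 days at 37 °C. CellTiter-Glo luminescence as % of DMSO control; IC50 from four-parameter fit, at least duplicate experiments.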

phosphorylated c-MET = target: T1, phosphorylated c-MET (Homo sapiens, UniProt P08581); assay: c-MET cell mechanistic assay (phosphorylated c-MET in MKN45 cells); assay type: cell-based; conditions: MKN45 cell line, four hours incubation, phosphorylated c-MET levels, at least duplicate experiments; read-out: Met mech IC50
T1 construct: endogenous in cells; host or cells: MKN45
T1 sequence (P08581 25-1390): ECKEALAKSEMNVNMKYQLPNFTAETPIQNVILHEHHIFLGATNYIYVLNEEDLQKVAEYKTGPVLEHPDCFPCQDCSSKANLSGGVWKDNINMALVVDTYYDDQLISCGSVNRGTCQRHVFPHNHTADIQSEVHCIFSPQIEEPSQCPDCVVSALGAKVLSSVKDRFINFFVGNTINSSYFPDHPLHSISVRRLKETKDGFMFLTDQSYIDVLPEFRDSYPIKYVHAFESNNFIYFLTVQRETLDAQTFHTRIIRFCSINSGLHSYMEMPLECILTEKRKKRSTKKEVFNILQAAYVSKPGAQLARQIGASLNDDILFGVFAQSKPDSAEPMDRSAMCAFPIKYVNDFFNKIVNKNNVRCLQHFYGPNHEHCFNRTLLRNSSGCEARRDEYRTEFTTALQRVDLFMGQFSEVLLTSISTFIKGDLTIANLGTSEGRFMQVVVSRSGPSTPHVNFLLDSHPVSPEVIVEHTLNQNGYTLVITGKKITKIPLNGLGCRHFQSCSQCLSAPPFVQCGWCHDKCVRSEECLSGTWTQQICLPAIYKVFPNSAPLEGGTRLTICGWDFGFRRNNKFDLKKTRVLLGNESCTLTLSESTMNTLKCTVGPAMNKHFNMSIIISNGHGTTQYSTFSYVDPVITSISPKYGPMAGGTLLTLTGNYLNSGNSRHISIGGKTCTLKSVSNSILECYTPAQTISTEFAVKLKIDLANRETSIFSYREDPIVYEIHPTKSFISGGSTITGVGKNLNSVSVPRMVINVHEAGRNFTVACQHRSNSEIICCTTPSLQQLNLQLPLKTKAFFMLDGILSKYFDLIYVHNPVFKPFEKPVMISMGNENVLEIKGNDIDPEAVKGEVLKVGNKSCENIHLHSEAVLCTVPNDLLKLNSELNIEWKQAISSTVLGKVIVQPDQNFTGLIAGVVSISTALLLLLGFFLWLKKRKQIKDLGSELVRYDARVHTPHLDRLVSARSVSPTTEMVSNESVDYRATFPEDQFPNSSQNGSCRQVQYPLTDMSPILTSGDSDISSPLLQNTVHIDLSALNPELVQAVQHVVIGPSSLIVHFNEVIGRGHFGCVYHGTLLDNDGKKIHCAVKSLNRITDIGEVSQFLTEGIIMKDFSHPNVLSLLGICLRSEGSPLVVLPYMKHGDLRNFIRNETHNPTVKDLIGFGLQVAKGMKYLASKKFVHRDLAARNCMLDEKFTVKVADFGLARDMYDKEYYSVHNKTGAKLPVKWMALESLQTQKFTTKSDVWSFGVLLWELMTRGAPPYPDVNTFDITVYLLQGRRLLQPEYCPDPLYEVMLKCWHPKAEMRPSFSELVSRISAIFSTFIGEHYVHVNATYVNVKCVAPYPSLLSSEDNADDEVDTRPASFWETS
How it was run: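 MKN45 cells were treated 4 h at 37 °C with a 6-point dilution series (typically 10 μM to 3 nM; final 0.5% DMSO). Phospho-c-MET (pY1230/1234/1235) in lysates was measured by capture ELISA with HRP read-out at 450 nm. IC50 came from a four-parameter fit of percent of DMSO control.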

Ron = target: T2, Ron (Homo sapiens, UniProt Q04912); assay: Ron kinase assay (Invitrogen Z′-LYTE kinase assay platform); assay type: biochemical; conditions: Z′-LYTE kinase assay at Invitrogen, ATP concentration of 100 μM
T2 construct: purchased Invitrogen
T2 sequence (Q04912 25-1400): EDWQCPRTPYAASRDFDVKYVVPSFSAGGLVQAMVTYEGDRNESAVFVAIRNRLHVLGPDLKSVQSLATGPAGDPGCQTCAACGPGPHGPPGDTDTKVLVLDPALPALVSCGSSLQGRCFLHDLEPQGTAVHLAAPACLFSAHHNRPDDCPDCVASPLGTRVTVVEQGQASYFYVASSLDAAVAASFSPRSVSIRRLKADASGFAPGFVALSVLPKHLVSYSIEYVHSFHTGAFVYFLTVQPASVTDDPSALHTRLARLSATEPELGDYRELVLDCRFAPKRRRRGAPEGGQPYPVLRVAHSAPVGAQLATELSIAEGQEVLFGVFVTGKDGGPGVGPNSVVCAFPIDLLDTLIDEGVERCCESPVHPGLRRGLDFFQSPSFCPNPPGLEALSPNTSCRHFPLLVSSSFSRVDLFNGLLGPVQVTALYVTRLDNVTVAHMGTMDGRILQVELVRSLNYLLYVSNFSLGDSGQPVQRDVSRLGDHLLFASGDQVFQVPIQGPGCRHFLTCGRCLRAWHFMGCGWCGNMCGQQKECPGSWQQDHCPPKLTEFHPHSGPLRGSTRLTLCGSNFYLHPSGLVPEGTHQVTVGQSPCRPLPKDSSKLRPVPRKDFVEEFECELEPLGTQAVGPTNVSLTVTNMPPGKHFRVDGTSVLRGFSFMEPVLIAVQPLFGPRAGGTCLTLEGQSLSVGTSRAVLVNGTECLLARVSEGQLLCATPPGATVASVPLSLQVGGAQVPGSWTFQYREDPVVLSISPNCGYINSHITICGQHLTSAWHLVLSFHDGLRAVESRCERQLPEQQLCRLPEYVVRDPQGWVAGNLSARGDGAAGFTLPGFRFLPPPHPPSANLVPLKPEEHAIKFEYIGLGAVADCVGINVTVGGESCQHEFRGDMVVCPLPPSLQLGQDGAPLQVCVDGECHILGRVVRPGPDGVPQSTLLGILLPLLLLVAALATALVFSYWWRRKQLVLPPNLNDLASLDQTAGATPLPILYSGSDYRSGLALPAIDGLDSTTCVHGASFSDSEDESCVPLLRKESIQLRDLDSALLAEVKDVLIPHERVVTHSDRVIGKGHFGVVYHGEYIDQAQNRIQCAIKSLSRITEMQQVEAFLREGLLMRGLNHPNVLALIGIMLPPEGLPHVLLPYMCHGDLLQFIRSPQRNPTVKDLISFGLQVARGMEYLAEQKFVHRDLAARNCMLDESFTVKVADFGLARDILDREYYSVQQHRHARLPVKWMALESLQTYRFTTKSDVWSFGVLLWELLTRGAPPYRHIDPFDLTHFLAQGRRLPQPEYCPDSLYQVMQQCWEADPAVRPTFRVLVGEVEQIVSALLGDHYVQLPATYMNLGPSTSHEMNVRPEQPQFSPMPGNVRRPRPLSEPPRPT
Experimental: (§1) The activities of exemplary compounds of the present invention against Ron and c-Met determined at Invitrogen using the Z′-LYTE™ kinase assay platform are shown in Table 1: A, IC50≦0.1 μM; B, 0.1 μM<IC50≦1 μM; C, 1 μM<IC50≦10 μM; D, IC50>10 μM. The assays were conducted at an ATP concentration of 100 μM. The Example # of Table 1 corresponds to the compound example number as illustrated in the Examples section.

c-Met = target: T3, c-Met (Homo sapiens, UniProt P08581); assay: c-Met kinase assay (Invitrogen Z′-LYTE kinase assay platform); assay type: biochemical; conditions: Z′-LYTE kinase assay at Invitrogen, ATP concentration of 100 μM
T3 construct: purchased Invitrogen
T3 sequence (P08581 25-1390): as the sequence (P08581 25-1390) above
Experimental: as §1

SMILES: C[C@H](c1c(Cl)ccc(F)c1Cl)c1c[nH]c2ncc(-c3cnn(CCO)c3)cc12 [Example 70, 2-(4-{3-[(S)-1-(2,6-Dichloro-3-fluorophenyl)ethyl]-1H-pyrrolo[2,3-b]-pyridin-5-yl}pyrazol-1-yl)ethanol]
- IC50 (MKN45 cells; Homo sapiens, MKN-45, 72 h): ≤ 100 nM
- IC50 (phosphorylated c-MET): ≤ 100 nM
- IC50 (Ron): 1000 to 10000 nM
- IC50 (c-Met): ≤ 100 nM

SMILES: CC(c1c(Cl)cccc1Cl)c1c[nH]c2ncc(-c3cnn(C4CCNCC4)c3)cc12 (stereo not drawn) [Example 1, 3-[1-(2,6-Dichlorophenyl)ethyl]-5-(1-piperidin-4-yl-1H-pyrazol-4-yl)-1H-pyrrolo[2,3-b]pyridine]
- IC50 (MKN45 cells; Homo sapiens, MKN-45, 72 h): 100 to 1000 nM
- IC50 (phosphorylated c-MET): ≤ 100 nM
- IC50 (Ron): ≤ 100 nM
- IC50 (c-Met): ≤ 100 nM

SMILES: CC(c1c(Cl)ccc(F)c1Cl)c1c[nH]c2ncc(-c3cnn(C4CCN(C=O)CC4)c3)cc12 (stereo not drawn) [Example 71, 4-(4-{3-[1-(2,6-Dichloro-3-fluorophenyl)ethyl]-1H-pyrrolo[2,3-b]pyridin-5-yl}-pyrazol-1-yl)-piperidine-1-carbaldehyde]
- IC50 (MKN45 cells): ≤ 100 nM
- IC50 (Ron): 100 to 1000 nM
- IC50 (c-Met): ≤ 100 nM

SMILES: CC(c1c(Cl)ccc(F)c1Cl)c1c[nH]c2ncc(-c3cnn(C4CCNCC4)c3)cc12 (stereo not drawn) [Example 2, 3-[1-(2,6-Dichloro-3-fluorophenyl)ethyl]-5-(1-piperidin-4-yl-1H-pyrazol-4-yl)-1H-pyrrolo[2,3-b]pyridine]
- IC50 (MKN45 cells; Homo sapiens, MKN-45, 72 h): ≤ 100 nM
- IC50 (phosphorylated c-MET): ≤ 100 nM
- IC50 (Ron): ≤ 100 nM
- IC50 (c-Met): ≤ 100 nM
